The source of these data is patent US20240366577A1, “CONTROLLED LONG-TERM DRUG DELIVERY AND METHODS THEREOF” (THE JOHNS HOPKINS UNIVERSITY, priority 2021, published 2024).

This assay relates to endothelial cell marker Cd31. Description: qPCR of retrieved tumors: Cd31. Conditions: crystals, compared to daily liquid bolus drug treatment; tumors at end of study. It counts as in vivo, BALB/c mice. The procedure:
To determine the anti-angiogenic efficacy of each sorafenib treatment group, qPCR gene expression analysis was performed on retrieved tumors at the conclusion of the study. In particular, analysis for levels of endothelial cell marker Cd31, vascular endothelial-cadherin (VE-Cdh), smooth muscle pericyte marker alpha Smooth Muscle actin (aSMact), and stem/progenitor cell marker Cd34 were conducted, as shown in FIG. 3F.
1 mL of TRIzol reagent (Cat#15596018, ThermoFisher) was added to 100 mg samples of tumor tissue and broken down with a power homogenizer (Polytron/VWR). Homogenized samples were incubated at room temperature for 5 min for complete nucleoprotein dissociation, then 0.2 ml of chloroform (Sigma) was added to each sample. Samples were shaken vigorously for 15 seconds and incubated at room temperature for 3 min before centrifuging at 12,000 g for 15 min at 4° C. The uppermost supernatant layer was pipetted into a 1.7 mL Eppendorf tube, with the remaining interphase and organic layer discarded. 0.5 mL of isopropanol (Sigma) was added to each sample, and then samples were incubated for 10 min. Samples were centrifuged at 12,000 g for 10 min at 4° C. […] Depending on size of resultant pellet, pellets were resuspended in 50-100 μL, and nucleic acid concentration was measured using a NanoDrop 2000 spectrophotometer (ThermoFisher). […]
In general terms: In qPCR the cycle at which signal appears reflects the starting amount.

SMILES strings stand for the structures.

On to `CNC(=O)c1cc(Oc2ccc(NC(=O)Nc3ccc(Cl)c(C(F)(F)F)c3)cc2)ccn1` [crystalline sorafenib, sorafenib], for which the “endothelial cell Cd31 expression levels (qPCR)” value was “more effectively reduced”.
